Patent US8940909B2, “Indicator platform” (Biosynth AG, priority 2009, dated 2015)

Legend:
Type in all cases: cell-based
Salmonella bongori 81 = experiment: IO staining of colonies of beta-D-galactosidase positive/negative bacteria (Table IVb); settings: Salmonella bongori strain 81, b-gal +; 24 h on Nutrient Agar, 150 mg/l indicator, 100 mg/l IPTG; on C: Color of colonies: key: −: absent; +/−: weak/variable; +: strong; on G: Growth of colonies: key: −: absent; +/−: weak; +: strong; ++: very strong
Escherichia coli = experiment: IN and IO staining of bacterial colonies under anaerobic conditions
Procedure: Nutrient Agar plates containing 150 mg/l of various substrates and 100 mg/l IPTG were inoculated with Escherichia coli. Plates were put in an anaerobic jar (Anaerojar, Oxoid), an AnaeroGen sachet (Oxoid) was added, the jar was closed and incubated for 24 hours at 37° C.
IN staining cannot be used under anaerobic conditions.

Serratia marcescens 40 = experiment: IO staining of colonies of beta-D-galactosidase positive/negative bacteria (Table IVb); settings: Serratia marcescens strain 40, b-gal +; 24 h on Nutrient Agar, 150 mg/l indicator, 100 mg/l IPTG; on G: Growth of colonies: key: −: absent; +/−: weak; +: strong; ++: very strong
Escherichia coli 61 = experiment: as above; settings: Escherichia coli strain 61, b-gal +; 24 h on Nutrient Agar, 150 mg/l indicator, 100 mg/l IPTG
[1] = system: Klebsiella pneumoniae 164; experiment: as above; settings: Klebsiella pneumoniae strain 164, b-gal +; 24 h on Nutrient Agar, 150 mg/l indicator, 100 mg/l IPTG; on C: Color of colonies: key: −: absent; +/−: weak; +: strong; ++: very strong; on G: Growth of colonies: key: −: absent; +/−: weak; +: strong; ++: very strong
[2] = system: Streptococcus agalactiae 195; experiment: as above; settings: Streptococcus agalactiae strain 195, b-gal −; 24 h on Nutrient Agar, 150 mg/l indicator, 100 mg/l IPTG; on C: Color of colonies: key: −: absent; +/−: weak; +: strong; ++: very strong; on F: Fluorescence of colonies: key: −: absent; +/−: weak; +: strong; ++: very strong
Bacillus subtilis 65 = experiment: as above; settings: Bacillus subtilis strain 65, b-gal −; 24 h on Nutrient Agar, 150 mg/l indicator, 100 mg/l IPTG
Enterobacter cloacae 245 = experiment: as above; settings: Enterobacter cloacae strain 245, b-gal +; 24 h on Nutrient Agar, 150 mg/l indicator, 100 mg/l IPTG
Shigella boydii 135 = experiment: as above; settings: Shigella boydii strain 135, b-gal −; 24 h on Nutrient Agar, 150 mg/l indicator, 100 mg/l IPTG
[3] = system: Yersinia enterocolitica 175; experiment: as above; settings: Yersinia enterocolitica strain 175, b-gal +/−; 24 h on Nutrient Agar, 150 mg/l indicator, 100 mg/l IPTG; on G: Growth of colonies: key: −: absent; +/−: weak; +: strong; ++: very strong
Salmonella illa 73 = experiment: as above; settings: Salmonella illa strain 73, b-gal +; 24 h on Nutrient Agar, 150 mg/l indicator, 100 mg/l IPTG
[4] = system: Shigella dysenteriae Serovar 1 131; experiment: as above; settings: Shigella dysenteriae Serovar 1 strain 131, b-gal +/−; 24 h on Nutrient Agar, 150 mg/l indicator, 100 mg/l IPTG
Citrobacter freundii 181 = experiment: as above; settings: Citrobacter freundii strain 181, b-gal +; 24 h on Nutrient Agar, 150 mg/l indicator, 100 mg/l IPTG
Shigella sonnei 133 = experiment: as above; settings: Shigella sonnei strain 133, b-gal +/−; 24 h on Nutrient Agar, 150 mg/l indicator, 100 mg/l IPTG
Staphylococcus aureus 2 = experiment: as above; settings: Staphylococcus aureus strain 2, b-gal −, 24 h on Nutrient Agar, 150 mg/l indicator, 100 mg/l IPTG
Aeromonas hydrophila 292 = experiment: as above; settings: Aeromonas hydrophila strain 292, b-gal +; 24 h on Nutrient Agar, 150 mg/l indicator, 100 mg/l IPTG
[5] = system: Salmonella enteritidis 43; experiment: as above; settings: Salmonella enteritidis strain 43, b-gal −; 24 h on Nutrient Agar, 150 mg/l indicator, 100 mg/l IPTG; further: key: −: absent; +/−: weak; +: strong; ++: very strong
[6] = system: Listeria monocytogenes (4b) 290; experiment: as above; settings: Listeria monocytogenes (4b) strain 290, b-gal −; 24 h on Nutrient Agar, 150 mg/l indicator, 100 mg/l IPTG; on C: Color of colonies: key: −: absent; +/−: weak; +: strong; ++: very strong; on F: Fluorescence of colonies: key: −: absent; +/−: weak; +: strong; ++: very strong
[7] = system: Staphylococcus saprophyticus 273; experiment: as above; settings: Staphylococcus saprophyticus strain 273, b-gal +; 24 h on Nutrient Agar, 150 mg/l indicator, 100 mg/l IPTG; on G: Growth of colonies: key: −: absent; +/−: weak; +: strong; ++: very strong
Escherichia coli 270 = experiment: as above; settings: Escherichia coli strain 270, b-gal +; 24 h on Nutrient Agar, 150 mg/l indicator, 100 mg/l IPTG
[8] = system: Escherichia coli (O157:H7) 60; experiment: as above; settings: Escherichia coli (O157:H7) strain 60, b-gal +; 24 h on Nutrient Agar, 150 mg/l indicator, 100 mg/l IPTG
[9] = system: Staphylococcus intermedius 31; experiment: as above; settings: Staphylococcus intermedius strain 31, b-gal +; 24 h on Nutrient Agar, 150 mg/l indicator, 100 mg/l IPTG
[10] = system: Pseudomonas aeruginosa 168; experiment: as above; settings: Pseudomonas aeruginosa strain 168, b-gal −, 24 h on Nutrient Agar, 150 mg/l indicator, 100 mg/l IPTG; on C: Color of colonies: key: −: absent; +/−: weak; +: strong; ++: very strong; on G: Growth of colonies: key: −: absent; +/−: weak; +: strong; ++: very strong
[11] = system: Enterobacter aerogenes 242; experiment: as above; settings: Enterobacter aerogenes strain 242, b-gal +; 24 h on Nutrient Agar, 150 mg/l indicator, 100 mg/l IPTG; on C: Color of colonies: key: −: absent; +/−: weak; +: strong; ++: very strong; on G: Growth of colonies: key: −: absent; +/−: weak; +: strong; ++: very strong
[12] = Nutrient Agar plates, anaerobically incubated with E. coli

## O=C(c1ccccc1)c1ccccc1-n1cc(O[C@@H]2O[C@H](CO)[C@H](O)[C@H](O)[C@H]2O)c2c(Cl)c(Br)ccc21 [Indicator I22a, 1-(2-Benzoylphenyl)-5-bromo-4-chloro-1H-indol-3-yl-beta-D-galactopyranoside]
Salmonella bongori 81
  C: Color of colonies: +/−
  F: Fluorescence of colonies: −
  G: Growth of colonies: +
Escherichia coli; E. coli, anaerobic, 24 hours at 37° C.
  Localization of stain under anaerobic conditions: perfect localization
Escherichia coli; [12]
  C: Color of colonies: o-r
  D: Diffusion around colonies: −
  G: Growth of colonies: +
  I: Intensity of color: +
  L: Localization on colonies: ++
  S: Size of colonies: 0.5 mm
Serratia marcescens 40
  C: Color of colonies: +
  F: Fluorescence of colonies: +/−
  G: Growth of colonies: +
Escherichia coli 61
  C: Color of colonies: +
  F: Fluorescence of colonies: +/−
  G: Growth of colonies: +
[1]
  C: Color of colonies: +
  F: Fluorescence of colonies: +/−
  G: Growth of colonies: +
[2]
  C: Color of colonies: −
  F: Fluorescence of colonies: −
  G: Growth of colonies: −
Bacillus subtilis 65
  C: Color of colonies: −
  F: Fluorescence of colonies: −
  G: Growth of colonies: −
Enterobacter cloacae 245
  C: Color of colonies: +
  F: Fluorescence of colonies: +/−
  G: Growth of colonies: +
Shigella boydii 135
  C: Color of colonies: −
  F: Fluorescence of colonies: −
  G: Growth of colonies: +
[3]
  C: Color of colonies: −
  F: Fluorescence of colonies: −
  G: Growth of colonies: +
Salmonella illa 73
  C: Color of colonies: −
  F: Fluorescence of colonies: −
  G: Growth of colonies: +
[4]
  C: Color of colonies: −
  F: Fluorescence of colonies: −
  G: Growth of colonies: +
Citrobacter freundii 181
  C: Color of colonies: +
  F: Fluorescence of colonies: +/−
  G: Growth of colonies: +
Shigella sonnei 133
  C: Color of colonies: +
  F: Fluorescence of colonies: +/−
  G: Growth of colonies: +
Staphylococcus aureus 2
  F: Fluorescence of colonies: −
  G: Growth of colonies: −
Staphylococcus aureus 2; footnote 2: S. aureus natural color
  C: Color of colonies: −
Aeromonas hydrophila 292
  C: Color of colonies: +/−
  F: Fluorescence of colonies: +/−
  G: Growth of colonies: +
[5]
  C: Color of colonies: −
  F: Fluorescence of colonies: −
  G: Growth of colonies: +
[6]
  C: Color of colonies: −
  F: Fluorescence of colonies: −
  G: Growth of colonies: −
[7]
  C: Color of colonies: −
  F: Fluorescence of colonies: −
  G: Growth of colonies: −
Escherichia coli 270
  C: Color of colonies: +
  F: Fluorescence of colonies: +/−
  G: Growth of colonies: +
[8]
  C: Color of colonies: +
  F: Fluorescence of colonies: +/−
  G: Growth of colonies: +
[9]
  C: Color of colonies: −
  F: Fluorescence of colonies: −
  G: Growth of colonies: −
[10]
  C: Color of colonies: −
  G: Growth of colonies: +
[10]; footnote 1: blue autofluorescence
  F: Fluorescence of colonies: +^1
[11]
  C: Color of colonies: +
  F: Fluorescence of colonies: +/−
  G: Growth of colonies: +
